Literature values in patent US11660346B2, “Engineered microparticles for macromolecule delivery” (University of Pittsburgh-Of the Commonwealth System of …, priority 2009, dated 2023).

Conditions: parameter for polyanhydride disk prediction, FIG. 10

CCCCN1CCCCC1C(=O)Nc1c(C)cccc1C (centres unmarked) [bupivacaine]
CAmx (maximum solubility of agent) (aqueous): 2.184 mol/m^3 | kdis (intrinsic dissolution rate constant): 0.046 mol/m^3 s
